Measurements taken from article PMC3947597 (Bioorganic & medicinal chemistry, 2013).

System: tubulin (colchicine site)
Test: Inhibition of [3H]colchicine binding to tubulin
Conditions: 1.0 µM tubulin, 5.0 µM [3H]colchicine, 10 min at 37 °C

SMILES: COc1ccc(/C=C\c2cc(OC)c(OC)c(OC)c2)cc1O [CA4, combretastatin A-4]
- Inhibition of colchicine binding (%) ±SD, 1 µM (inhibitor 1 µM): 88±2%
- Inhibition of colchicine binding (%) ±SD, 5 µM (inhibitor 5 µM): 98±0.5%
